Patent US20240383875A1, “Benzimidazole Pyridine Derivatives” (Hoffmann-La Roche Inc., priority 2022, published 2024)

Legend:
Assay type in all cases: biochemical
SIK1 = SIK1 (Homo sapiens, UniProt P57059); test: Enzymatic activity assay SIK1, RapidFire mass spectrometry (phosphorylation of CHK-peptide); details: RapidFire MS, inhibition of SIK1; read-out: SIK1 RF IC50
Summary of the method: (§1)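 Human SIK1/2/3, 5/0.5/1.5 nM; 12.5 mM HEPES pH 7.0, 10 mM Mg acetate, 0.005% BSA. 30 min cpd pre-inc, + CHK-peptide (10 μM soln) + ATP (100 μM soln), 45 min RT. Formic acid stop; RF-MS phospho ratio; IC50.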

SIK3 = SIK3 (Homo sapiens, UniProt Q9Y2K2); test: Enzymatic activity assay SIK3, RapidFire mass spectrometry (phosphorylation of CHK-peptide); details: RapidFire MS, inhibition of SIK3; read-out: SIK3 RF IC50
Summary of the method: as §1

SIK2 = SIK2 (Homo sapiens, UniProt Q9H0K1); test: Enzymatic activity assay SIK2, RapidFire mass spectrometry (phosphorylation of CHK-peptide); details: RapidFire MS, inhibition of SIK2; read-out: SIK2 RF IC50
Summary of the method: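 Read-out is the summed phospho-species fraction of CHK-peptide by RapidFire mass spectrometry, normalized between DMSO and 1 μM YKL-05-099. The reaction used 0.5 nM SIK2, 100 μM ATP and 10 μM peptide solutions in HEPES pH 7.0/10 mM magnesium acetate for 45 min at ambient temperature.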

Sequence of SIK2 (Q9H0K1 whole entry): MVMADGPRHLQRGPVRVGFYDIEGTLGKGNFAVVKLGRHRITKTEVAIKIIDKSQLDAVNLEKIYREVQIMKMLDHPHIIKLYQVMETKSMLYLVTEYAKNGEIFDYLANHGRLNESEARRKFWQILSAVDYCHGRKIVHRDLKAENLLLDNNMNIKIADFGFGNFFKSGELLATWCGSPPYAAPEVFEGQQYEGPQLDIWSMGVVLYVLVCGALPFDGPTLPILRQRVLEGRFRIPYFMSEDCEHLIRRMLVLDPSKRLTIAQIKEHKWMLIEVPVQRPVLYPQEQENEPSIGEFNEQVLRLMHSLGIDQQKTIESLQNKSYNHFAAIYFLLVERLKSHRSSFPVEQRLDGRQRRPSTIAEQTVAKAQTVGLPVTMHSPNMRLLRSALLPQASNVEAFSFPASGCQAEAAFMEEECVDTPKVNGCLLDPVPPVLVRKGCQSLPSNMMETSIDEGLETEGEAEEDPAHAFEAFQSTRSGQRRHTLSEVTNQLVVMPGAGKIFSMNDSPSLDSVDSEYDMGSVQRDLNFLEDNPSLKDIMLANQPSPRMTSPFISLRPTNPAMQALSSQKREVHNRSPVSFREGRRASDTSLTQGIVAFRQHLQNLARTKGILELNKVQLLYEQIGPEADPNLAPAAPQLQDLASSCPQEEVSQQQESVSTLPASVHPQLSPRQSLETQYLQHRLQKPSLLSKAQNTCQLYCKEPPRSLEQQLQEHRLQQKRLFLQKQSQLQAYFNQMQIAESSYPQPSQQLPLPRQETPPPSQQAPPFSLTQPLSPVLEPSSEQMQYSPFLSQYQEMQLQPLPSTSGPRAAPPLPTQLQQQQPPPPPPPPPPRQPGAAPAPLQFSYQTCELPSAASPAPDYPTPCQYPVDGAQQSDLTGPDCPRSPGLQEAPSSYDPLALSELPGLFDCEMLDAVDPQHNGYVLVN
Sequence of SIK3 (Q9Y2K2 whole entry): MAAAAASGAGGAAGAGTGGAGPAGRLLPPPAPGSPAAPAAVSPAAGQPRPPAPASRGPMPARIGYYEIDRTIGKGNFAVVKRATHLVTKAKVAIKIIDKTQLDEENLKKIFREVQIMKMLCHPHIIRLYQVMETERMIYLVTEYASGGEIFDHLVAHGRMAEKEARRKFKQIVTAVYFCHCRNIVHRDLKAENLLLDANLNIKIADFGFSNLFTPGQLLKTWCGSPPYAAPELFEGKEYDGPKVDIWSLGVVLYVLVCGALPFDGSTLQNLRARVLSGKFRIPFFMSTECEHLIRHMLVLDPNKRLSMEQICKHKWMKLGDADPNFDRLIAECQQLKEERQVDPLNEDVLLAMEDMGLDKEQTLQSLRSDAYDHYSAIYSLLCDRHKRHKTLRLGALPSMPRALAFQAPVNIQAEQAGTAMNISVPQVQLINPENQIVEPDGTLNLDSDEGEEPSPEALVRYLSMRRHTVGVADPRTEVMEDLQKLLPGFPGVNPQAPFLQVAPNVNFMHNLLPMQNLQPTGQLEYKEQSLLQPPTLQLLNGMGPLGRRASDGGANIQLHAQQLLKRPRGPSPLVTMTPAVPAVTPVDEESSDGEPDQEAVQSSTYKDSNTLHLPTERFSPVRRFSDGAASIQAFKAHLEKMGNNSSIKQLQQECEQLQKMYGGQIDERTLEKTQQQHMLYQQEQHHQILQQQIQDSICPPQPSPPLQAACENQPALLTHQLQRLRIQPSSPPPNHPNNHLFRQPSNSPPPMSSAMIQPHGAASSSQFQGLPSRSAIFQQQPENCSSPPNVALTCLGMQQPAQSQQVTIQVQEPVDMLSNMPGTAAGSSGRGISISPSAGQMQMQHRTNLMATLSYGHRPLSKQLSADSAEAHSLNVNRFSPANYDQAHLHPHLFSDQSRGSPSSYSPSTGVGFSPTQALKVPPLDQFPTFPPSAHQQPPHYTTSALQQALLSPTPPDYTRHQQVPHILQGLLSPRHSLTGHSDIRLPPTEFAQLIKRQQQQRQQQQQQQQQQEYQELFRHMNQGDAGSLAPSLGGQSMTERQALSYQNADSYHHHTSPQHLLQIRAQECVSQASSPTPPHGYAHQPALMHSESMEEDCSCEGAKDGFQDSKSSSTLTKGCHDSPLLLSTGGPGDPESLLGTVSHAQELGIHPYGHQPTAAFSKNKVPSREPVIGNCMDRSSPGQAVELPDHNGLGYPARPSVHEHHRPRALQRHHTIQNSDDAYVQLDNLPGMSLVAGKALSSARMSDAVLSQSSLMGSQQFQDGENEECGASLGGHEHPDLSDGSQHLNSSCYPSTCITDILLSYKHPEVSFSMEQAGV
Sequence of SIK1 (P57059 whole entry): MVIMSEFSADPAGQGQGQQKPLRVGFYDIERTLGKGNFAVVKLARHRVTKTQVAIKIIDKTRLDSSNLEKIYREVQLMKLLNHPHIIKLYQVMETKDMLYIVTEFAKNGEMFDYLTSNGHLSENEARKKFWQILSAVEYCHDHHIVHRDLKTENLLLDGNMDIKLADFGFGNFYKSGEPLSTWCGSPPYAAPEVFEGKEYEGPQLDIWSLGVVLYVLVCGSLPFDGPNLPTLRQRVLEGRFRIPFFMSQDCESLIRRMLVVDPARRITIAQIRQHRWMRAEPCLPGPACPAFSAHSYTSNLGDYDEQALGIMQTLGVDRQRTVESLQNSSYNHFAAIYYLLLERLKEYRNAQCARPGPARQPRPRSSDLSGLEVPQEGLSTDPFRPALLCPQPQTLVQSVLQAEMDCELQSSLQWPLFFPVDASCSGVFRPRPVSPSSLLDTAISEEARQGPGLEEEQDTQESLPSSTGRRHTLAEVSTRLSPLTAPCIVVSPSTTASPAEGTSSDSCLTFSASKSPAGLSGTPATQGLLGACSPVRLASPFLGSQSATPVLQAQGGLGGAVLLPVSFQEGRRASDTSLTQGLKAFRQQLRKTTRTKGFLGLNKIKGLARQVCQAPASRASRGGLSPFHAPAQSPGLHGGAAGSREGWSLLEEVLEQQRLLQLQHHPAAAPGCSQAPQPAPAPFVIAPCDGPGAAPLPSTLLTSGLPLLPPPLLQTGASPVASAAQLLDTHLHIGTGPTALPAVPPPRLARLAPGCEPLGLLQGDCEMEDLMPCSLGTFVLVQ

SMILES	IC50 (SIK1)	IC50 (SIK3)	IC50 (SIK2)
Cc1ccc(Nc2ccc3c(c2)ncn3-c2ccc(C(C)O)c(-n3nc(C)cc3C#N)n2)nn1 (stereo not drawn) [Example 104, 2-[3-(1-Hydroxyethyl)-6-[5-[(6-methylpyridazin-3-yl)amino]benzimidazol-1-yl]-2-pyridyl]-5-methyl-pyrazole-3-carbonitrile]	616 nM	2.6 nM	10.4 nM
Cc1ccc(Nc2ccc3c(c2)ncn3-c2ccc(C(C)O)c(N3CC[C@@H](C#N)C3)n2)nn1 (stereo partly drawn) [Example 105, (3R)-1-[3-(1-Hydroxyethyl)-6-[5-[(6-methylpyridazin-3-yl)amino]benzimidazol-1-yl]-2-pyridyl]pyrrolidine-3-carbonitrile]	1340 nM	236 nM	783 nM
Cc1ccc(Nc2ccc3ncn(-c4ccc(C(C)O)c(N5CC[C@@H](C#N)C5)n4)c3c2)nn1 (stereo partly drawn) [Example 106, (3R)-1-[3-(1-Hydroxyethyl)-6-[6-[(6-methylpyridazin-3-yl)amino]benzimidazol-1-yl]-2-pyridyl]pyrrolidine-3-carbonitrile]	869 nM	2.5 nM	21.1 nM
Cc1ccc(Nc2ccc3ncn(-c4ccc(C(C)O)c(-n5nc(C)cc5C)n4)c3c2)nn1 (stereo not drawn) [Example 107, 1-[2-(3,5-Dimethylpyrazol-1-yl)-6-[6-[(6-methylpyridazin-3-yl)amino]benzimidazol-1-yl]-3-pyridyl]ethanol; formic acid]	2610 nM	3500 nM	1370 nM
Cc1ccc(Nc2ccc3c(c2)ncn3-c2ccc(C(C)O)c(-n3nc(C)cc3C)n2)nn1 (stereo not drawn) [Example 108, 1-[2-(3,5-Dimethylpyrazol-1-yl)-6-[5-[(6-methylpyridazin-3-yl)amino]benzimidazol-1-yl]-3-pyridyl]ethanol; formic acid]	3820 nM	6.4 nM	42.6 nM
Cc1ccc(Nc2ccc3c(c2)ncn3-c2ccc(C(C)O)c(NCC3(C#N)CC3)n2)nn1 (stereo not drawn) [Example 116, 1-[[[3-(1-Hydroxyethyl)-6-[5-[(6-methylpyridazin-3-yl)amino]benzimidazol-1-yl]-2-pyridyl]amino]methyl]cyclopropanecarbonitrile; formic acid]	1620 nM	9.6 nM	47.1 nM
Cc1ccc(Nc2ccc3ncn(-c4ccc(C(C)O)c(NCC5(C#N)CC5)n4)c3c2)nn1 (stereo not drawn) [Example 117, 1-[[[3-(1-Hydroxyethyl)-6-[6-[(6-methylpyridazin-3-yl)amino]benzimidazol-1-yl]-2-pyridyl]amino]methyl]cyclopropanecarbonitrile; formic acid]	3530 nM	365 nM	1020 nM
Cc1ccc(Nc2ccc3c(c2)ncn3-c2ccc(C(C)O)c(-c3cncc(C#N)c3)n2)nn1 (stereo not drawn) [Example 118, 5-[3-(1-Hydroxyethyl)-6-[5-[(6-methylpyridazin-3-yl)amino]benzimidazol-1-yl]-2-pyridyl]pyridine-3-carbonitrile; formic acid]	2770 nM	7.1 nM	36.4 nM
Cc1ccc(Nc2ccc3ncn(-c4ccc(C(C)O)c(N5CCC(C)(C#N)C5)n4)c3c2)nn1 (stereo not drawn) [Example 120, 1-[3-(1-Hydroxyethyl)-6-[6-[(6-methylpyridazin-3-yl)amino]benzimidazol-1-yl]-2-pyridyl]-3-methyl-pyrrolidine-3-carbonitrile]	2210 nM	307 nM	1310 nM
Cc1ccc(Nc2ccc3c(c2)ncn3-c2ccc(C(C)O)c(N3CCC(C)(C#N)C3)n2)nn1 (stereo not drawn) [Example 121, 1-[3-(1-Hydroxyethyl)-6-[5-[(6-methylpyridazin-3-yl)amino]benzimidazol-1-yl]-2-pyridyl]-3-methyl-pyrrolidine-3-carbonitrile]	1200 nM	3.6 nM	22.4 nM
Cc1ccc(Nc2ccc3c(c2)ncn3-c2ccc(C(C)O)c(-c3cc(C(F)(F)F)nn3C)n2)nn1 (stereo not drawn) [Example 122, 1-[6-[5-[(6-Methylpyridazin-3-yl)amino]benzimidazol-1-yl]-2-[2-methyl-5-(trifluoromethyl)pyrazol-3-yl]-3-pyridyl]ethanol]	3460 nM	6.9 nM	33 nM
Cc1ccc(Nc2ccc3c(c2)ncn3-c2ccc(C(C)O)c(C(=O)NCC(F)(F)F)n2)nn1 (stereo not drawn) [Example 124, 3-(1-Hydroxyethyl)-6-[5-[(6-methylpyridazin-3-yl)amino]benzimidazol-1-yl]-N-(2,2,2-trifluoroethyl)pyridine-2-carboxamide; formic acid]	1520 nM	10.1 nM	36 nM
Cc1ccc(Nc2ccc3ncn(-c4ccc(C(C)O)c(N5CC[C@@H]6NCC[C@H]65)n4)c3c2)nn1 (stereo partly drawn) [Example 125, 1-[6-[6-[(6-Methylpyridazin-3-yl)amino]benzimidazol-1-yl]-2-[(3aR,6aS)-2,3,3a,5,6,6a-hexahydro-1H-pyrrolo[3,2-b]pyrrol-4-yl]-3-pyridyl]ethanol; formic acid]	981 nM	895 nM	863 nM
Cc1ccc(Nc2ccc3c(c2)ncn3-c2ccc(C(C)O)c(-n3nc(C(F)F)cc3C)n2)nn1 (stereo not drawn) [Example 129, 1-[2-[3-(Difluoromethyl)-5-methyl-pyrazol-1-yl]-6-[5-[(6-methylpyridazin-3-yl)amino]benzimidazol-1-yl]-3-pyridyl]ethanol; formic acid]	472 nM	1.2 nM	3.9 nM
Cc1cc(C#N)nn1-c1nc(-n2cnc3cc(N4CCN(C5COC5)CC4)c(Br)cc32)ccc1C(C)O (stereo not drawn) [Example 130, 1-[6-[6-Bromo-5-[4-(oxetan-3-yl)piperazin-1-yl]benzimidazol-1-yl]-3-(1-hydroxyethyl)-2-pyridyl]-5-methyl-pyrazole-3-carbonitrile]	589 nM	339 nM	215 nM

Compounds with a lower IC50 (SIK1), results first:

IC50 (SIK1)	IC50 (SIK3)	IC50 (SIK2)	SMILES
11 nM	0.8 nM	1.4 nM	Cc1nnc(Nc2ccc3c(c2)ncn3-c2ccc(C(C)O)c(-n3nc(C#N)cc3C)n2)s1 (stereo not drawn) [Example 111, 1-[3-(1-Hydroxyethyl)-6-[5-[(5-methyl-1,3,4-thiadiazol-2-yl)amino]benzimidazol-1-yl]-2-pyridyl]-5-methyl-pyrazole-3-carbonitrile]
319 nM	34.1 nM	76 nM	Cc1cc(C#N)nn1-c1nc(-n2cnc3cc(OC4CCN(C5COC5)CC4)ccc32)ccc1C(C)O (stereo not drawn) [Example 113, 1-[3-(1-Hydroxyethyl)-6-[5-[[1-(oxetan-3-yl)-4-piperidyl]oxy]benzimidazol-1-yl]-2-pyridyl]-5-methyl-pyrazole-3-carbonitrile]
49 nM	606 nM	47 nM	Cc1cc(C#N)nn1-c1nc(-n2cnc3ccc(OC4CCN(C5COC5)CC4)cc32)ccc1C(C)O (stereo not drawn) [Example 114, 1-[3-(1-Hydroxyethyl)-6-[6-[[1-(oxetan-3-yl)-4-piperidyl]oxy]benzimidazol-1-yl]-2-pyridyl]-5-methyl-pyrazole-3-carbonitrile]
283 nM	0.7 nM	3.9 nM	Cc1ccc(Nc2ccc3c(c2)ncn3-c2ccc(C(C)O)c(-n3ccc(C#N)n3)n2)nn1 (stereo not drawn) [Example 115, 1-[3-(1-Hydroxyethyl)-6-[5-[(6-methylpyridazin-3-yl)amino]benzimidazol-1-yl]-2-pyridyl]pyrazole-3-carbonitrile]
12 nM	1.6 nM	1.8 nM	Cc1cc(C#N)nn1-c1nc(-n2cnc3cc(Nc4nccnn4)ccc32)ccc1C(C)O (stereo not drawn) [Example 119, 1-[3-(1-Hydroxyethyl)-6-[5-(1,2,4-triazin-3-ylamino)benzimidazol-1-yl]-2-pyridyl]-5-methyl-pyrazole-3-carbonitrile]
13 nM	5.9 nM	9.9 nM	Cc1cc(C#N)nn1-c1nc(-n2cnc3cc(Nc4ccon4)ccc32)ccc1C(C)O (stereo not drawn) [Example 123, 1-[3-(1-Hydroxyethyl)-6-[5-(isoxazol-3-ylamino)benzimidazol-1-yl]-2-pyridyl]-5-methyl-pyrazole-3-carbonitrile]
65 nM	228 nM	74.5 nM	Cc1ccc(Nc2ccc3ncn(-c4ccc(C(C)O)c(N5CC[C@H]6NCC[C@@H]65)n4)c3c2)nn1 (stereo partly drawn) [Example 126, 1-[6-[6-[(6-Methylpyridazin-3-yl)amino]benzimidazol-1-yl]-2-[(3aS,6aR)-2,3,3a,5,6,6a-hexahydro-1H-pyrrolo[3,2-b]pyrrol-4-yl]-3-pyridyl]ethanol; formic acid]
193 nM	155 nM	89.5 nM	Cc1ccc(Nc2ccc3ncn(-c4ccc(C(C)O)c(-n5nc(C(F)F)cc5C)n4)c3c2)nn1 (stereo not drawn) [Example 128, 1-[2-[3-(Difluoromethyl)-5-methyl-pyrazol-1-yl]-6-[6-[(6-methylpyridazin-3-yl)amino]benzimidazol-1-yl]-3-pyridyl]ethanol]
447 nM	2.2 nM	7.7 nM	CCOc1cc(C)n(-c2nc(-n3cnc4cc(Nc5ccc(C)nn5)ccc43)ccc2C(C)O)n1 (stereo not drawn) [Example 133, 1-[2-(3-Ethoxy-5-methyl-pyrazol-1-yl)-6-[5-[(6-methylpyridazin-3-yl)amino]benzimidazol-1-yl]-3-pyridyl]ethanol; formic acid]
426 nM	1290 nM	345 nM	CCOc1cc(C)n(-c2nc(-n3cnc4ccc(Nc5ccc(C)nn5)cc43)ccc2C(C)O)n1 (stereo not drawn) [Example 134, 1-[2-(3-Ethoxy-5-methyl-pyrazol-1-yl)-6-[6-[(6-methylpyridazin-3-yl)amino]benzimidazol-1-yl]-3-pyridyl]ethanol]
